Where only a bound is given, the exact number is not on record here.

The IC50 is the concentration needed to halve the response being measured.

The target in experiment [1] is T1, human CD38 (Homo sapiens, UniProt P28907).
T1 construct: purchased Bio-Techne GmbH AVI2404
T1 sequence (P28907 1-300): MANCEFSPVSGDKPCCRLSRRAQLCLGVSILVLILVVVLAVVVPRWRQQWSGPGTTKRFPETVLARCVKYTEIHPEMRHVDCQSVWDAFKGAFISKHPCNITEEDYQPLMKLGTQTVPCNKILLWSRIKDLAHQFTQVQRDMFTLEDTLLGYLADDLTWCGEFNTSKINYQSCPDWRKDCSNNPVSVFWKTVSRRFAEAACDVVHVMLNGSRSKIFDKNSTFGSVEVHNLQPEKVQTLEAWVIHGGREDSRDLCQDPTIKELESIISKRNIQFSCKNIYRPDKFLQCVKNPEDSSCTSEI
The experiment is described as follows: NAD+ cyclase activity assay with human recombinant CD38 protein (ε-NAD fluorescence). It counts as biochemical. As to conditions: 1.9 nM human CD38, substrate ε-NAD, 30 min preincubation, fluorescence 300/410 nm. Summed up:
(§1)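 Recombinant CD38 (0.6 nM mouse or 1.9 nM human) in 40 mM HEPES/NaOH pH 7.5, 250 mM sucrose, 0.01% Tween was preincubated with compound for 30 min at room temperature, then […] ε-NAD was added. Fluorescence (ex 300/em 410 nm) was read continuously. Slopes over the linear phase were normalised to enzyme and no-enzyme controls and fitted from 12-point, threefold dose-response curves.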

In experiment [2] the target is T2, mouse CD38 (Mus musculus, UniProt P56528).
T2 construct: purchased Bio-Techne GmbH 4947-AC
T2 sequence (P56528 1-304): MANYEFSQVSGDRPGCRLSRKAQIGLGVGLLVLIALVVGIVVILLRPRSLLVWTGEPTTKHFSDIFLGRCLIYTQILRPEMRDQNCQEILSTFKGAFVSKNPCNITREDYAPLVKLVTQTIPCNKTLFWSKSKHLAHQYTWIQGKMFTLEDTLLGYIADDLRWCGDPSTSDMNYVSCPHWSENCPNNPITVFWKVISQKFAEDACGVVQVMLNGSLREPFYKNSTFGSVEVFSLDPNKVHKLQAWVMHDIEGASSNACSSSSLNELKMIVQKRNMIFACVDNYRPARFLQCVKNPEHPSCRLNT
Briefly: NAD+ cyclase activity assay with mouse recombinant CD38 protein (ε-NAD fluorescence). In kind it is biochemical. As to conditions: 0.6 nM mouse CD38, substrate ε-NAD, 30 min preincubation, fluorescence 300/410 nm. A digest of the protocol:
as §1

Consider `O=C(N[C@H]1CC[C@H](N2CCC(F)(F)C2)CC1)c1ccc2c(c1)-c1cncn1CCO2` [Compound 71A, N-((1r,4r)-4-(3,3-Difluoropyrrolidin-1-yl)cyclohexyl)-5,6-dihydrobenzo[f]imidazo[1,5-d][1,4]oxazepine-10-carboxamide], for which the IC50 in experiment [1] is below 30 nM; in experiment [2], 1 to 10 nM.

With `O=C(N[C@H]1CC[C@H](N2CC(F)(F)C2)CC1)c1ccc2c(c1)-c1cncn1CCO2` [Compound 72A, N-((1r,4r)-4-(3,3-Difluoroazetidin-1-yl)cyclohexyl)-5,6-dihydrobenzo[f]imidazo[1,5-d][1,4]oxazepine-10-carboxamide], the IC50 in experiment [1] was below 30 nM; in experiment [2], below 1 nM.

Take `O=C(NC1CCC(F)(F)CC1)c1cc(F)c2c(c1)-c1cncn1CCO2` [Compound 73A, N-(4,4-Difluorocyclohexyl)-8-fluoro-5,6-dihydrobenzo[f]imidazo[1,5-d][1,4]oxazepine-10-carboxamide]: the IC50 in experiment [1] is below 30 nM; in experiment [2], below 1 nM.

`C[C@@H](N[C@H]1CC[C@H](NC(=O)c2ccc3c(c2)-c2cncn2CCO3)CC1)C(F)(F)F` [Compound 74A, N-((1r,4r)-4-(((R)-1,1,1-Trifluoropropan-2-yl)amino)cyclohexyl)-5,6-dihydrobenzo[f]imidazo[1,5-d][1,4]oxazepine-10-carboxamide]: the half-maximal inhibitory concentration (IC50) in experiment [1] is 30 to 100 nM; in experiment [2], 1 to 10 nM.

`O=C(N[C@H]1CC[C@@H](OCCC(F)F)CC1)c1ccc2c(c1)-c1cncn1CCO2` [Compound 77A, N-((1s,4s)-4-(3,3-Difluoropropoxy)cyclohexyl)-5,6-dihydrobenzo[f]imidazo[1,5-d][1,4]oxazepine-10-carboxamide]: the 50% inhibitory concentration (IC50) is below 30 nM in experiment [1] and 1 to 10 nM in experiment [2].

Take `O=C(N[C@H]1CC[C@H](OCCC(F)F)CC1)c1ccc2c(c1)-c1cncn1CCO2` [Compound 78A, N-((1r,4r)-4-(3,3-Difluoropropoxy)cyclohexyl)-5,6-dihydrobenzo[f]imidazo[1,5-d][1,4]oxazepine-10-carboxamide]: the IC50 in experiment [1] is 100 to 1000 nM; in experiment [2], above 100 nM.

As for `O=C(N[C@H]1CC[C@@H](OCCCF)CC1)c1ccc2c(c1)-c1cncn1CCO2` [Compound 79A, N-((1s,4s)-4-(3-Fluoropropoxy)cyclohexyl)-5,6-dihydrobenzo[f]imidazo[1,5-d][1,4]oxazepine-10-carboxamide], the concentration for half-maximal inhibition (IC50) in experiment [1] lay in the range of 100 to 1000 nM; in experiment [2], 10 to 100 nM.

`O=C(N[C@H]1CC[C@H](OCCCF)CC1)c1ccc2c(c1)-c1cncn1CCO2` [Compound 80A, N-((1r,4r)-4-(3-Fluoropropoxy)cyclohexyl)-5,6-dihydrobenzo[f]imidazo[1,5-d][1,4]oxazepine-10-carboxamide]: the values for the half-maximal inhibitory concentration (IC50) in experiment [1] and in experiment [2] were below 30 nM and 1 to 10 nM, respectively.

`COCCOc1ncc(NC(=O)c2ccc3c(c2)-c2cncn2CCO3)cn1` [Compound 81A, N-(2-(2-Methoxyethoxy)pyrimidin-5-yl)-5,6-dihydrobenzo[f]imidazo[1,5-d][1,4]oxazepine-10-carboxamide]: the concentration for half-maximal inhibition (IC50) in experiment [1] is below 30 nM; in experiment [2], 1 to 10 nM.

For the molecule `O=C(N[C@H]1CC[C@H](NC2CCC2(F)F)CC1)c1ccc2c(c1)-c1cncn1CCO2` (stereo partly drawn) [Compound 82A, N-((1r,4r)-4-((2,2-Difluorocyclobutyl)amino)cyclohexyl)-5,6-dihydrobenzo[f]imidazo[1,5-d][1,4]oxazepine-10-carboxamide], the half-inhibitory concentration (IC50) in experiment [1] was below 30 nM; in experiment [2], 1 to 10 nM.

For the molecule `CC(C)(F)CN[C@H]1CC[C@H](NC(=O)c2ccc3c(c2)-c2cncn2CCO3)CC1` [Compound 83A, N-((1r,4r)-4-((2-Fluoro-2-methylpropyl)amino)cyclohexyl)-5,6-dihydrobenzo[f]imidazo[1,5-d][1,4]oxazepine-10-carboxamide], the concentration for half-maximal inhibition (IC50) in experiment [1] was in the range of 100 to 1000 nM; in experiment [2] it was 10 to 100 nM.

Turning to `O=C(NC1CC(F)(F)C1)c1ccc2c(c1)-c1cncn1CCO2` [Compound 84A, N-(3,3-Difluorocyclobutyl)-5,6-dihydrobenzo[f]imidazo[1,5-d][1,4]oxazepine-10-carboxamide], the half-inhibitory concentration (IC50) in experiment [1] was below 30 nM; in experiment [2], 1 to 10 nM.

In the case of `CS(=O)(=O)CCCO[C@H]1CC[C@H](NC(=O)c2ccc3c(c2)-c2cncn2CCO3)CC1` [Compound 85A, N-((1r,4r)-4-(3-(Methylsulfonyl)propoxy)cyclohexyl)-5,6-dihydrobenzo[f]imidazo[1,5-d][1,4]oxazepine-10-carboxamide], the results for the IC50 in experiment [1] and in experiment [2] were below 30 nM and 1 to 10 nM, respectively.

In the case of `CS(=O)(=O)CCCO[C@H]1CC[C@@H](NC(=O)c2ccc3c(c2)-c2cncn2CCO3)CC1` [Compound 86A, N-((1s,4s)-4-(3-(Methylsulfonyl)propoxy)cyclohexyl)-5,6-dihydrobenzo[f]imidazo[1,5-d][1,4]oxazepine-10-carboxamide], the results for the IC50 in experiment [1] and in experiment [2] were 100 to 1000 nM and above 100 nM, respectively.

Turning to `C[C@H](N[C@H]1CC[C@H](NC(=O)c2ccc3c(c2)-c2cncn2CCO3)CC1)C(F)(F)F` [Compound 87A, N-((1r,4r)-4-(((S)-1,1,1-Trifluoropropan-2-yl)amino)cyclohexyl)-5,6-dihydrobenzo[f]imidazo[1,5-d][1,4]oxazepine-10-carboxamide], the results for the IC50 in experiment [1] and in experiment [2] were below 30 nM and below 1 nM, respectively.

Consider `CC(C)(N[C@H]1CC[C@H](NC(=O)c2ccc3c(c2)-c2cncn2CCO3)CC1)C(F)(F)F` [Compound 88A, N-((1r,4r)-4-((1,1,1-Trifluoro-2-methylpropan-2-yl)amino)cyclohexyl)-5,6-dihydrobenzo[f]imidazo[1,5-d][1,4]oxazepine-10-carboxamide], for which the figures for the half-maximal inhibitory concentration (IC50) in experiment [1] and in experiment [2] were below 30 nM and below 1 nM, respectively.

As to `O=C(N[C@H]1CC[C@@H](OCCC(F)(F)F)CC1)c1ccc2c(c1)-c1cncn1CCO2` [Compound 89A, N-((1s,4s)-4-(3,3,3-Trifluoropropoxy)cyclohexyl)-5,6-dihydrobenzo[f]imidazo[1,5-d][1,4]oxazepine-10-carboxamide], the IC50 in experiment [1] was 100 to 1000 nM; in experiment [2], above 100 nM.

For the molecule `O=C(N[C@H]1CC[C@H](OCCC(F)(F)F)CC1)c1ccc2c(c1)-c1cncn1CCO2` [Compound 90A, N-((1r,4r)-4-(3,3,3-Trifluoropropoxy)cyclohexyl)-5,6-dihydrobenzo[f]imidazo[1,5-d][1,4]oxazepine-10-carboxamide], the IC50 in experiment [1] is below 30 nM; in experiment [2] it was below 1 nM.

In the case of `COCCO[C@H]1CC[C@H](NC(=O)c2cc(F)c3c(c2F)-c2cncn2CCO3)CC1` [Compound 91A, 8,11-Difluoro-N-((1r,4r)-4-(2-methoxyethoxy)cyclohexyl)-5,6-dihydrobenzo[f]imidazo[1,5-d][1,4]oxazepine-10-carboxamide], the results for the IC50 in experiment [1] and in experiment [2] were 30 to 100 nM and 1 to 10 nM, respectively.

`O=C(N[C@@H]1CCC(F)(F)C1)c1ccc2c(c1)-c1cncn1CCO2` [Compound 92A, (R)—N-(3,3-Difluorocyclopentyl)-5,6-dihydrobenzo[f]imidazo[1,5-d][1,4]oxazepine-10-carboxamide]: the half-inhibitory concentration (IC50) in experiment [1] is below 30 nM; in experiment [2] it was 1 to 10 nM.

Turning to `O=C(N[C@H]1CCC(F)(F)C1)c1ccc2c(c1)-c1cncn1CCO2` [Compound 93A, (S)—N-(3,3-Difluorocyclopentyl)-5,6-dihydrobenzo[f]imidazo[1,5-d][1,4]oxazepine-10-carboxamide], the IC50 in experiment [1] is below 30 nM; in experiment [2] it was 1 to 10 nM.

These data come from patent US20260138990A1, “TRICYCLIC FUSED IMIDAZOLE COMPOUNDS AS CD38 MODULATORS AND USES THEREOF” (AEOVIAN PHARMACEUTICALS, INC., priority 2023, published 2026).
